Measured values from publication PMC7269481, “ZN148 Is a Modular Synthetic Metallo-β-Lactamase Inhibitor That Reverses Carbapenem Resistance in Gram-Negative Pathogens In Vivo” (Antimicrobial Agents and Chemotherapy, 2020).
Entries after “also recorded” stand apart in the source; their conditions may differ. Read-outs that look alike come from different tables or passages of the source.

What was measured:
[1] = biological target: T1, recombinant human glyoxylase II (Homo sapiens, UniProt Q16775); experiment: Interaction with human glyoxylase II; assay type: biochemical; details: 500 μM
T1 construct: purchased R&D Systems
Protocol: Recombinant human glyoxylase II (rHGly II; R&D Systems) was incubated with or without ZN148 (final concentrations of 125, 250, and 500 μM) for 10 and 30 min at 25°C in 50 mM Tris buffer (Merck) supplemented with 250 mM NaCl (pH 7.5). Then, 50 μl of substrate mixture containing 2 mM S-lactoylglutathione and 400 μM 5,5′-dithiobis(2-nitrobenzoic acid) (Sigma-Aldrich) was mixed with 50 μl of the preincubated rHGly II at a final enzyme concentration of 0.2 ng/μl. The initial enzymatic velocity was measured at 405 nm in 96-well plates (Thermo Fisher Scientific, Roskilde, Denmark) at 25°C in a SpectraMax Plus plate reader (Molecular Devices). EDTA (Merck) was included as a control.

[2] = test system: NDM-1-producing K. pneumoniae 50752501; experiment: Murine neutropenic peritonitis model; assay type: in vivo, mice
Protocol: The in vivo efficacy of meropenem (Mylan; Mylan Hospitals, Asker, Norway) in combination with ZN148 were evaluated in a murine neutropenic peritonitis model. Female NRMI mice (Taconic Biosciences, Lille Skensved, Denmark) were rendered neutropenic by intraperitoneal (i.p.) injection with cyclophosphamide (Baxter, Søborg, Denmark) at 4 days (200 mg/kg) and 1 day (100 mg/kg) prior to inoculation. Mice were inoculated i.p. with ∼5 × 10^6 CFU of NDM-1-producing K. pneumoniae 50752501. At 1 h postinoculation, the mice were injected subcutaneously (s.c.) in the neck region with ZN148 corresponding to 10, 33, or 100 mg/kg or vehicle. After 30 min, the mice were injected s.c. with 33 mg/kg meropenem or vehicle. Four mice were included for each treatment regime. At 5 h postinoculation, the mice were anesthetized. Blood was collected from axillary cutdown, and the mice were sacrificed. Subsequently, 2 ml of sterile saline was injected i.p., and the intraperitoneal fluid was sampled. Blood and intraperitoneal fluid were serially diluted in 0.9% NaCl and plated on blood agar plates with 5% horse blood (Statens Serum Institut, Copenhagen, Denmark) for CFU determination. Groups were analyzed with analysis of variance (ANOVA) Dunnett’s multiple-comparison test in Prism 7.04 (GraphPad Software, Inc.). P values of <0.05 were considered statistically significant. All animal experiments were approved by the National Committee of Animal Ethics, Denmark (permission 2014-15-0201-00171), and adhered to the standards of EU Directive 2010/63/EU.

[3] = test system: strains coproducing MBLs and class D carbapenemases; experiment: Carbapenem potentiation, strains coproducing MBLs and class D carbapenemases; assay type: cell-based; details: with a few exceptions; 50 μM ZN148
Protocol: (§1) MICs of carbapenems alone and in combination with inhibitors were determined by broth microdilution according to the Clinical and Laboratory Standards Institute (CLSI) guidelines ([48]) using either premade plates (TREK Diagnostic Systems/Thermo Fisher Scientific, East Grinstead, United Kingdom) with meropenem or in-house-prepared plates with meropenem, imipenem, and doripenem. ZN148 and other inhibitors were tested at a fixed concentration of 50 μM. Cation-adjusted Mueller-Hinton medium (TREK Diagnostic Systems/Thermo Fisher Scientific; Becton Dickinson, Franklin Lakes, NJ) were used as growth medium. The plates were incubated for 20 h at 37°C. ZN148, ZN222, ZN223, ZN228, and TPA were initially tested in combination with meropenem using two indicator strains: NDM-1-producing K. pneumoniae ([49], [50]) and VIM-2-producing P. aeruginosa ([51]). […]

NDM-1 = biological target: T2, NDM-1 (Klebsiella pneumoniae, UniProt C7C422); experiment: Zinc content determination by ICP-MS, NDM-1; assay type: biochemical; details: ICP-MS after preincubation
T2 construct: made in house
T2 sequence (C7C422 29-270, looked up): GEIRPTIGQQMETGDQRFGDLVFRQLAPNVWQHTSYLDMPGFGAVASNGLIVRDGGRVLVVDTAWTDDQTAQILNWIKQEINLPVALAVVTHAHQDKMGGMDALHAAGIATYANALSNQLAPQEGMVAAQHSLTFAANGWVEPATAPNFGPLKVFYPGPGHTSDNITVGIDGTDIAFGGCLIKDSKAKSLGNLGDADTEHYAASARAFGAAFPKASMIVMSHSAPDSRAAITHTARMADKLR

[4] = test system: E. coli co-producing MBLs and class A/D serine carbapenemases; experiment: Carbapenem MIC, E. coli co-producing MBLs and class A/D serine carbapenemases; assay type: cell-based; details: carbapenem alone or with 50µM ZN148
Protocol: (§2) MICs of carbapenems alone and in combination with inhibitors were determined by broth microdilution according to the Clinical and Laboratory Standards Institute (CLSI) guidelines ([48]) using either premade plates (TREK Diagnostic Systems/Thermo Fisher Scientific, East Grinstead, United Kingdom) with meropenem or in-house-prepared plates with meropenem, imipenem, and doripenem. ZN148 and other inhibitors were tested at a fixed concentration of 50 μM. Cation-adjusted Mueller-Hinton medium (TREK Diagnostic Systems/Thermo Fisher Scientific; Becton Dickinson, Franklin Lakes, NJ) were used as growth medium. The plates were incubated for 20 h at 37°C. ZN148, ZN222, ZN223, ZN228, and TPA were initially tested in combination with meropenem using two indicator strains: NDM-1-producing K. pneumoniae ([49], [50]) and VIM-2-producing P. aeruginosa ([51]). The activity of ZN148 were subsequently tested against two extended strain collections: (i) in combination with meropenem against MBL-producing Enterobacterales (n = 62), MBL-producing P. aeruginosa (n = 9) and MBL- and class D carbapenemase-coproducing Enterobacterales (n = 5) from the strain collection at the Norwegian National Advisory Unit on Detection of Antimicrobial Resistance and (ii) in combination with meropenem, imipenem, and doripenem against globally collected MBL-producing E. coli (n = 87), K. pneumoniae (n = 85), P. aeruginosa (n = 52), and A. baumannii (n = 6), MBL- and class A/D carbapenemase-coproducing E. coli (n = 11), K. pneumoniae (n = 15) and A. baumannii (n = 7) at IHMA Europe, Sàrl, Switzerland. E. coli ATCC 25922 and P. aeruginosa ATCC 27853 were used as quality control strains. The MBL inhibitors were also tested for intrinsic antibacterial activity against the strains.

[5] = test system: class A carbapenemase (KPC)-producing E. coli; experiment: Carbapenem MIC, class A carbapenemase-producing E. coli; assay type: cell-based; details: carbapenem alone or with 50µM ZN148
Protocol: as §2

[6] = test system: K. pneumoniae with NDM (n=95); experiment: Meropenem MIC distribution, K. pneumoniae with NDM; assay type: cell-based; details: MEM alone or +50 µM ZN148
Protocol: as §2

[7] = test system: NDM-1-producing K. pneumoniae 50752501; experiment: Meropenem MIC of the in vivo strain; assay type: cell-based; details: Klebsiella pneumoniae; read-out: MEM MIC
Protocol: as §1

| SMILES | inhibitory activity against recombinant human glyoxylase II [1] | CFU with ZN148 alone compared to vehicle ([2]; ZN148 alone, s.c.) | CFU/ml with meropenem + higher ZN148 doses compared to meropenem alone ([2]; meropenem 33 mg/kg + 33 and 100 mg/kg ZN148 s.c.) | CFU/ml in peritoneal fluid compared to meropenem alone ([2]; s.c. meropenem 33 mg/kg + ZN148 10 mg/kg, 5 h postinoculation, P < 0.0001) | CFU/ml in blood compared to meropenem alone ([2]; s.c. meropenem 33 mg/kg + ZN148 10 mg/kg, 5 h postinoculation, P < 0.01) | potentiation of meropenem, doripenem, and imipenem [3] | zinc removed from enzyme (NDM-1) [molar equivalents] | MIC ([4]; NDM-1 + GES-2 strain) [µg/mL] | MIC ([4]; NDM-5 + OXA-48 strain) [µg/mL] | MIC ([4]; NDM-5 + OXA-232 strains, one value per strain) [µg/mL] | MIC ([5]; Escherichia coli, KPC-2 strains, one value per strain, read-out: MIC) [µg/mL] | MIC ([5]; Escherichia coli, KPC-3 strain, read-out: MIC) [µg/mL] | MIC ([5]; KPC-2 strains, one value per strain, listed as MEM) [µg/mL] | No. of strains with indicated MIC ([6]; MIC 2 mg/L) | No. of strains with indicated MIC ([6]; MIC 8 mg/L) | No. of strains with indicated MIC ([6]; MIC 16 mg/L) | No. of strains with indicated MIC ([6]; MIC 32 mg/L) | No. of strains with indicated MIC ([6]; MIC ≥64 mg/L) | MIC [7] [µg/mL] |
| --- | --- | --- | --- | --- | --- | --- | --- | --- | --- | --- | --- | --- | --- | --- | --- | --- | --- | --- | --- |
| CN(C[C@H](O)[C@@H](O)[C@H](O)[C@H](O)CO)C(=O)c1ccc(CN(Cc2ccccn2)Cc2ccccn2)nc1 [ZN148] | no inhibition; also recorded: no inhibitory activity | did not result in a reduction in CFU | same effect | significantly lower CFU/ml | significantly lower CFU/ml | no potentiation | ~1.3 |  |  |  |  |  |  |  |  |  |  |  |  |
| C[C@@H](O)[C@H]1C(=O)N2C(C(=O)O)=C(S[C@@H]3CN[C@H](C(=O)N(C)C)C3)[C@H](C)[C@H]12 [meropenem] |  |  |  |  |  |  |  | > 64 | > 64 | > 64 | 8 | 2 | 4 | 1 | 1 | 3 | 10 | 80 | 64 |
